# Measured values from patent publication US20040234476A1, “Cosmetic preparation with anti-wrinkle action” (priority 2001, published 2004).
# Where no end group is shown, it is not given here. The star is where a group is joined. Palmitoyl = CCCCCCCCCCCCCCCC(=O)*
# Tested on: cells
# Assay: in vitro studies of collagen and glycosaminoglycan synthesis by cells
# Type: cell-based
substance,measurement,value
palmitoyl-Lys-Thr-Thr-Lys-Ser (Palmitoyl-KTTKS) [lipopeptide],synthesis of collagen and glycosaminoglycans by cells,induces cells to synthesize collagen and glycosaminoglycans
